# According to patent publication US9084419B2, “Method for reducing temperature stress of plants” (SUMITOMO CHEMICAL COMPANY, LIMITED, priority 2009, dated 2015):
# Tests used:
# [1] = system: Rice (cultivar: NIHOMBARE); experiment: Reduction of low temperature stress in hydroponics of rice; assay type: in vivo; details: hydroponic culture medium; stress exposed group, 2 to 4° C. for 3 to 7 days
# Protocol: Rice seeds (cultivar: NIHOMBARE) are immersed in distilled water containing 1,000 ppm of Benlate and then incubated at 30° C. for one day. The seeds are washed with distilled water, incubated in distilled water for one day and then subjected to a forced germination treatment. In the bottom of a 288-well plug tray, cotton wool is spread and then the seeds subjected to the forced germination treatment are sown. A hydroponic culture medium (8-fold diluted Kimura B hydroponic culture solution) is added thereto, followed by cultivation for 3 to 10 days under the conditions of a temperature of 28° C. (day)/23° C. (night), a humidity of 60%, an illuminance of 7,100 lx, and a day length of 12 hours. A DMSO solution having a concentration 1,000 times of each test concentration of any one of the compounds A to G is prepared and then diluted with a hydroponic culture medium. An aqueous solution (250,000 ppm) of a sodium salt of the compound A is diluted with the hydroponic culture medium to prepare a liquid having a test concentration. The above rice seedling is transferred to these hydroponic culture media containing the compound, and then cultivated for 7 to 10 days under the conditions of a temperature of 28° C. (day)/23° C. (night), a humidity of 60%, an illuminance of 7,100 lx, and a day length of 12 hours. Using a hydroponic culture medium containing 0.1% DMSO added therein as a control of any one of the compounds A to G and using a hydroponic culture medium as a control of the sodium salt of the compound A, the above rice seedlings are cultivated to form a non-treated group. The seedlings during the treatment with the present compound are cultivated for 3 to 7 days under the conditions of a temperature of 2 to 4° C., a humidity of 40 to 70%, an illuminance of 3,500 lx, and a day length of 12 hours in the stress exposed group, and under the conditions of a temperature of 25 to 30° C., a humidity of 50 to 75%, an illuminance of 4,500 lx, and a day length of 12 hours in the stress non-exposed group. After the stress test, the plant length and the weight of the above-ground part are examined. Using a pulse modulation chlorophyll fluorometer (MAXI-IMAGING-PAM, WALZ), the chlorophyll fluorescence (Fv/Fm) is measured.
# wheat (cultivar: Apogee) [2] = experiment: Reduction of high temperature stress by wheat seed treatment (plant weight), Test Example 2; assay type: in vivo; details: 40° C. (day)/30° C. (night) for 14 days; for Fresh weight of the above-ground part: 32nd day after seeding
# Protocol: A Blank slurry solution containing 5% (V/V) color coat red (Becker Underwood, Inc.), 5% (V/V) CF-Clear (Becker Underwood, Inc.) and 0.4% Maxim XL (Syngenta) was prepared. A sodium salt of the compound A was dissolved in the Blank slurry to obtain a slurry solution so as to control the amount of the sodium salt within a range from 0.5 mg to 2 mg per 1 g of seeds. Using a seed treating machine (HEGE11, manufactured by Hans-Ulrich Hege), seed coating was carried out by mixing 1.3 ml of the slurry solution with 50 g of wheat seeds (cultivar: Apogee) and the seeds were dried. As a control, seed coating was carried out using the Blank slurry solution in place of the slurry solution to obtain seeds for non-treated group. The coated seeds (5 seeds each) were sown in the growing soil (AISAI) in a plastic pot and then cultivated for 18 days under the conditions of a temperature of 20 to 25° C., a humidity of 50 to 75%, an illuminance of 5,300 lx, and a day length of 16 hours. Before the stress test, thinning was carried out to control the number of seedlings to 3 per pot. The above test plants on the 18th day after seeding were cultivated for 14 days under the conditions of a temperature of 40° C. (day)/30° C. (night), a humidity of 63% (day)/70% (night), an illuminance of 7,100 lx, and a day length of 16 hours. After the stress test, on the 32nd day after seeding, fresh weight of the above-ground part of test plants was examined for 4 to 7 pots.
# roots = details: known from JP 4,087,942, JP 2001-139405, Plant and Soil 255: 67-75 (2003); cited from earlier work
# wheat (cultivar: Apogee) [3] = experiment: Reduction of high temperature stress by wheat foliage spraying treatment (plant weight); assay type: in vivo; details: foliage spray, 0.5 mg in 50 ml; 45° C., 17 hours; 4 days after stress
# Protocol: Wheat (cultivar: Apogee) seeds were sown in the growing soil (AISAI) in a plastic pot ([…]×58 mm in height) and then cultivated for one week under the conditions of a temperature of 20 to 25° C., a humidity of 50 to 75%, an illuminance of 5,300 lx, and a day length of 16 hours.
# A flowable formulation of the compound A was obtained by adding about 120 mg of a mixture of white carbon and a polyoxyethylene alkyl ether sulfate ammonium salt (weight ratio of 1:1) and 300 μl of water to 0.5 mg of the compound A, followed by fine grinding using a wet grinding method. The obtained flowable formulation was diluted with 50 ml of water to obtain a spray liquid. After adding 0.2% RINO as a sticker to the spray liquid, a sufficient amount (45 ml per 6 pots) was sprayed using an automatic spraying machine. As a control, a flowable formulation not containing the compound A was prepared and then sprayed to the non-treated group. Under the conditions of a temperature of 20 to 25° C., a humidity of 50 to 75%, an illuminance of 5,300 lx, and a day length of 16 hours, cultivation was carried out for 2 days.
# The above test plants having been subjected to the spraying treatment were put in an artificial climate chamber set to the following conditions, and a stress test was carried out.
# Temperature: 45° C., 17 hours, Illuminance: 6,500 to 7,900 lx, and Humidity: 50%. […]
# [4] = system: Tomato (cultivar: Micro-Tom); experiment: Reduction of high temperature stress by tomato soil irrigation treatment (fruit setting rate); assay type: in vivo; details: soil irrigation twice, 50 ml per seedling; 40° C. (day)/30° C. (night) for 7 days; 13 days after stress
# Protocol: Tomato seeds (cultivar: Micro-Tom) were sown in the growing soil (AISAI) in a plastic pot and then cultivated in a greenhouse (set at a temperature of 25° C.) for about 4 weeks. A soil irrigation treatment was carried out twice, using an aqueous solution of a sodium salt of the compound A in an amount of 50 ml per seedling, on the 15th day and the 22nd day after seeding. As a control, a soil irrigation treatment was carried out using distilled water in an amount of 50 ml per seedling to form a non-treated group. After the irrigation treatment, plants cultivated up to the period when a 1st flower cluster blooms (1 to 2 flowers bloom(s), on the 32nd day after seeding) were cultivated for 7 days under the conditions of a temperature of 40° C. (day)/30° C. (night), a humidity of 63% (day)/70% (night), an illuminance of 7,100 lx, and a day length of 16 hours in the stress exposed group, while plants were cultivated for 7 days in a greenhouse (set at a temperature of 25° C.) in the stress non-exposed group. After the stress test, the test plants were cultivated for 13 days in a greenhouse (set at a temperature of 25° C.), the number of flower setting and the number of fruit setting were counted to determine a fruit setting rate (%) (number of fruit setting/number of flower setting×100).
# wheat (cultivar: Apogee) [5] = experiment: Reduction of high temperature stress by wheat seed treatment (plant weight), Test Example 10; assay type: in vivo; details: seed coating 5 mg per 1 g of seeds; 36° C. (day)/32° C. (night) for 19 days; 36th day after seeding
# Protocol: A Blank slurry solution containing 5% (V/V) color coat red (Becker Underwood, Inc.), 5% (V/V) CF-Clear (Becker Underwood, Inc.) and 0.4% Maxim XL (Syngenta) was prepared. The compound C (methyl 4-oxo-4-(2-phenylethyl)aminobutyrate) or the compound E (5-oxo-5-[2-(3-indolyl)ethyl]aminovaleric acid) was dissolved in the Blank slurry to obtain a slurry solution so as to control the amount of the compound to be 5 mg per 1 g of seeds. Using a 50-ml conical tube, seed coating was carried out by mixing 1.3 ml of the slurry solution with 50 g of wheat seeds (cultivar: Apogee) and the seeds were dried. As a control, seed coating was carried out using the Blank slurry solution in place of the slurry solution to obtain seeds for non-treated group. The coated seeds (5 seeds each) were sown in the growing soil (AISAI) in a plastic pot and then cultivated in a greenhouse (set at a temperature of 18° C. (day)/15° C. (night)) for 17 days. Before the stress test, thinning was carried out to control the number of seedlings to 3 per pot.
# The above test plants on the 17th day after seeding were cultivated for 19 days in an artificial climate chamber under the conditions of a temperature of 36° C. (day)/32° C. (night), a humidity of 50% (day)/60% (night), an illuminance of 7,000 lx, and a day length of 12 hours. […]
structure (smiles),measurement,setting,value
"O=C([O-])CCC(=O)NCCc1ccccc1.[Na+] [Compound A, Na salt]",chlorophyll fluorescence (Fv/Fm) vs non-treated group,[1],increase
same,plant length vs non-treated group,[1],increase
same,weight of the above-ground part vs non-treated group,[1],increase
same,Percentage relative to non-treated group (fresh weight of the above-ground part),wheat (cultivar: Apogee) [2]; seed coating 0.5 mg/g of seeds,150%
same,Fresh weight of the above-ground part,wheat (cultivar: Apogee) [2]; seed coating 0.5 mg/g of seeds,0.87 g/3 seedlings
same,Percentage relative to non-treated group (fresh weight of the above-ground part),wheat (cultivar: Apogee) [2]; seed coating 1.0 mg/g of seeds,140%
same,Fresh weight of the above-ground part,wheat (cultivar: Apogee) [2]; seed coating 1.0 mg/g of seeds,0.77 g/3 seedlings
same,Percentage relative to non-treated group (fresh weight of the above-ground part),wheat (cultivar: Apogee) [2]; seed coating 2.0 mg/g of seeds,140%
same,Fresh weight of the above-ground part,wheat (cultivar: Apogee) [2]; seed coating 2.0 mg/g of seeds,0.81 g/3 seedlings
"O=C(O)CCC(=O)NCCc1ccccc1 [compound A, 4-oxo-4-(2-phenylethyl)aminobutyric acid]",activity to promote growth of roots,roots,have activity to promote growth of roots
same,fresh weight of the above-ground part vs non-treated group,wheat (cultivar: Apogee) [3],increased
same,visual evaluation of high temperature stress-induced withering and dying vs non-treated group,wheat (cultivar: Apogee) [3],alleviation of high temperature stress-induced withering and dying was observed
same,fruit setting rate vs non-treated group,[4],a decrease in fruit setting rate was remarkably alleviated
"COC(=O)CCC(=O)NCCCCc1ccccc1 [compound B, methyl 4-oxo-4-(4-phenylbutyl)aminobutyrate]",chlorophyll fluorescence (Fv/Fm) vs non-treated group,[1],increase
same,plant length vs non-treated group,[1],increase
same,weight of the above-ground part vs non-treated group,[1],increase
"COC(=O)CCC(=O)NCCc1ccccc1 [compound C, methyl 4-oxo-4-(2-phenylethyl)aminobutyrate]",fresh weight of the above-ground part vs non-treated group,wheat (cultivar: Apogee) [5],increased
"O=C(O)CCCC(=O)NCCc1c[nH]c2ccccc12 [compound E, 5-oxo-5-[2-(3-indolyl)ethyl]aminovaleric acid]",fresh weight of the above-ground part vs non-treated group,wheat (cultivar: Apogee) [5],increased
